Test results from patent US20030022872A1, “Vitamin d derivatives having substituents at the 2 alpha-position” (priority 2000, published 2003).

Target: T1, bovine thymus vitamin D receptor (VDR) (Bos taurus, UniProt Q28037)
T1 sequence (Q28037 1-426): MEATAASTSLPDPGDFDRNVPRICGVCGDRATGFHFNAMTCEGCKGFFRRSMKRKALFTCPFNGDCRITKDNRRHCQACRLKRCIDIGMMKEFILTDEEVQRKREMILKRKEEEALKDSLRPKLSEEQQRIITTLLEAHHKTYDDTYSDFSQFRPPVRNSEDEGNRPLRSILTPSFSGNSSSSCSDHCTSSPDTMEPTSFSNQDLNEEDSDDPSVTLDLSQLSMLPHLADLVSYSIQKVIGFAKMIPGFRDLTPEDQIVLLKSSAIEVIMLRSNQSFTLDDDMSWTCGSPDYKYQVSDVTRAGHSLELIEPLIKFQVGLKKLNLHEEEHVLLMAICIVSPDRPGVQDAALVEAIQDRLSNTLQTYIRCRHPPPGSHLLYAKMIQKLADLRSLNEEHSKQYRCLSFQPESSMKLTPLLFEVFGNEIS
Details: relative value with 1α,25-dihydroxyvitamin D3 taken as 100; ratio of concentrations inhibiting 50% of [3H]-1α,25-dihydroxyvitamin D3 binding (0.1 nM tracer, overnight at 4° C.)
Description: Each of the resultant supernatants (500 μl) was mixed with ACS-II (9.5 ml) ([sequence], England) for radioactivity measurement.
X: relative VDR binding property of the vitamin D derivative of the present invention

(5Z,7E)-(1S,2S,3R,20R)-2-(3-hydroxypropoxy)-9,10-seco-5,7,10(19)-cholestatriene-1,3,25-triol [Compound 16]
relative VDR binding property X=(y/x)×100: 180
